Laboratory results taken from patent publication US20260256753A1, “USE OF AN OREXIN 2 RECEPTOR AGONIST FOR IMPROVING RESPIRATORY FUNCTION DURING SLEEP” (TAKEDA PHARMACEUTICAL COMPANY LIMITED, priority 2023, published 2026).

Key:
diaphragm = test: EMG recording of the diaphragm in anesthetized rats; assay type: in vivo, rat; conditions: 10 min after administration, versus vehicle, FIG. 4
Experimental: Rats were anaesthetized with isoflurane (induction: 2%, maintenance: 1.5%). Anesthetic depth was assessed by the reflex responses to paw pinches. The tail vein was cannulated for intravenous drug administration. Rats were laid on disposable body warmers to prevent decrease in body temperature. The diaphragm was exposed, then two needle electrodes were implanted into costal diaphragm to monitor diaphragm EMG. After 10 min of baseline recording, vehicle (0.1% [w/v] Polysorbate 80 and 20% [w/v] Captisol solution) or Compound C was administered intravenously, and then EMG was recorded for 10 min. EMG was amplified using Bio amp system (ML132, AD Instruments), high-pass filtered (10 Hz), digitized, and recorded using PowerLab software (AD Instruments), and then rectified and integrated with a time constant decay (100 ms) using LabChart software (AD Instruments). Threshold levels for bursts were set using LabChart software (AD Instruments). Bursts were then automatically detected, and burst frequency was measured. Mean values in burst frequency during 2 min before vehicle or Compound C administration were used as control values, and those during 10 min after vehicle or Compound C administration were used to calculate percent of control values.

OX2R = target: T1, OX2R (Homo sapiens, UniProt O43614); conditions: OX2R-expressed recombinant cells; cited from earlier work
T1 sequence (O43614 1-444): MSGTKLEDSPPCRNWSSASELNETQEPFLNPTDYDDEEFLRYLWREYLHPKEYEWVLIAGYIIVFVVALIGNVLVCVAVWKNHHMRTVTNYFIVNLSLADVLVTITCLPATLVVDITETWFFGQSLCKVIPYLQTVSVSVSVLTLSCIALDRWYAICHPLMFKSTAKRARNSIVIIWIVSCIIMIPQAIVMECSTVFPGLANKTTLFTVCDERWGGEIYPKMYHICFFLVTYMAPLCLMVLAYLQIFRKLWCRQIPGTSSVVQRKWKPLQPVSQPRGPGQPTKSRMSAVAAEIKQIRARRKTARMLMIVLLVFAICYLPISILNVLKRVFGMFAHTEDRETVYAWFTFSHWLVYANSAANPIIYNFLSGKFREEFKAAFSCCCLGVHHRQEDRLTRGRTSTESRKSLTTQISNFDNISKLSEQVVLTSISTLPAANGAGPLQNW

With `CC(C)(O)C(=O)N1CC(F)(F)[C@H](NS(C)(=O)=O)[C@@H]1Cc1cccc(-c2cc(F)cc(F)c2)c1F` [Compound C, N-{(2S,3R)-4,4-difluoro-1-(2-hydroxy-2-methylpropanoyl)-2-[(2,3′,5′-trifluoro[1,1′-biphenyl]-3-yl)methyl]pyrrolidin-3-yl}methanesulfonamide] the “burst frequency of the diaphragm” value (diaphragm; 1 mg/kg intravenous) was “significantly increased burst frequency” and the “burst frequency of the diaphragm” value (diaphragm; 3 mg/kg intravenous) was “significantly increased burst frequency”.

For `COC(=O)N1CCC[C@H](NS(C)(=O)=O)[C@@H]1CO[C@H]1CC[C@@H](c2ccccc2)CC1` (relative stereo) [Compound A, methyl(2R,3S)-3-((methylsulfonyl)amino)-2-(((cis-4-phenylcyclohexyl)oxy)methyl) piperidine-1-carboxylate], the calcium mobilization (OX2R) is given as “increase calcium mobilization”.
